The record followed here is patent US20260308145A1, “CDK2 INHIBITORS AND METHODS OF USING SAME” (Shenzhen lonova Life Science Co., Ltd., priority 2023, published 2026).

By IC50 is commonly meant the concentration that gives 50% inhibition. High values mean a need for much substance, low ones inhibition by little substance.

Common to all, as to format: biochemical
One assay deals with T1, CDK1/cyclinB1 (Homo sapiens, UniProt P06493).
T1 construct: purchased Carna Biosciences 04-102
The assay can be described thus: Cyclin-dependent kinase activity assay (continuous ATP coupling assay), CDK1/cyclinB1. Conditions: CDK1/cyclinB1 10 nM, ATP 200 μM, Histone1 copeptide 100 μM, 15 min preincubation, pH 7.5, 1% DMSO. How it is done: (§1) Cyclin-dependent kinase activity assay was measured by continuous ATP coupling assay in which ADP generated by kinase catalyzed phosphorylation was converted back to ATP by consuming phosphoenolpyruvate (PEP) and NADH catalyzed by pyruvate kinase/lactate dehydrogenase (PK/LDH). The assay compositions (see, Table 1) consist of one of the kinases, including CDK1/cyclinB1, CDK2/cyclinE1, CDK4/cyclinD3, and CDK6/cyclinD3 at the designated concentration, ATP at the corresponding Km of the kinase, copeptide and the ATP coupling system of PEP, NADH and PK/LDH. The assay was conducted in a reaction buffer of 20 mM Tris (pH 7.5) with 50 mM NaCl, 0.5 mM DTT and 0.04% BSA, and results were monitored continuously by fluorescence decrease of NADH with excitation at 340 nm and emission at 460 nm. Linear regression of the resulting reaction time traces gave reaction velocities.
(§2) For inhibition assay, compounds were first serial diluted in a 1:3 ratio from 10 μM to 0.05 nM using 10× reaction buffer. One of the CDK kinase was then introduced to compounds solution and incubated for 15 min. Finally, the compositions of ATP coupling system were introduced to the resulting solution to initiate the reaction. The final reaction mixture was in 1× reaction assay buffer with 1% DMSO. The half-maximal inhibition concentrations (IC50) for compounds were determined by fitting the plots of reaction velocity against compound concentration with 4-variable IC50 equation. The inhibition constants (Ki) were determined by fitting the same plots with quadratic/Morrison equation. Data were analyzed using commercially available software Graphpad Prism.
(§3) Exemplary results are presented as calculated IC50 values. • A: IC50≤10 nM • B: IC50>10 nM and IC50<100 nM • C: IC50≥100 nM

The target in a further assay is T2, CDK2/cyclinE1 (Homo sapiens, UniProt P24941).
T2 construct: purchased Carna Biosciences 04-165
As to the kind of experiment: Cyclin-dependent kinase activity assay (continuous ATP coupling assay), CDK2/cyclinE1. To be noted: CDK2/cyclinE1 5 nM, ATP 300 μM, Rb copeptide 100 μM, 15 min preincubation, pH 7.5, 1% DMSO. As for the experimental part:
as §1, §2, §3

In another assay the target is T3, CDK4/cyclinD3 (Homo sapiens, UniProt P11802).
T3 construct: purchased Carna Biosciences 04-105
T3 sequence (P11802 whole entry): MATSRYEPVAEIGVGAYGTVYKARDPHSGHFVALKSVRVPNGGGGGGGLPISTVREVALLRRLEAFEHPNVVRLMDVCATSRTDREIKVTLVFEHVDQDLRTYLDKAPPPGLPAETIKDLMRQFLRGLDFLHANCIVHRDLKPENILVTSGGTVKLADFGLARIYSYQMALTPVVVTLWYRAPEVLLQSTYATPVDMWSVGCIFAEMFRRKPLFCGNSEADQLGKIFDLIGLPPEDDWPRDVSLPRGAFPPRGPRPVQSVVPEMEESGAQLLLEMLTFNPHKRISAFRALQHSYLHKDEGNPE
T3 sequence (P30281 whole entry partner): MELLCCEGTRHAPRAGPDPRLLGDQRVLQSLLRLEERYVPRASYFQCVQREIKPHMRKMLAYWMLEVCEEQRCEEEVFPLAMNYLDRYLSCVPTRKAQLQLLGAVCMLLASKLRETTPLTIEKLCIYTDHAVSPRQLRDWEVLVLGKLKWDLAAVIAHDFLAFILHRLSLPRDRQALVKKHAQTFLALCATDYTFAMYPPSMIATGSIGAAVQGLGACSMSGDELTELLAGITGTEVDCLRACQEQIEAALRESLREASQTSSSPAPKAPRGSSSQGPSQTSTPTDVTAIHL
As to the kind of experiment: Cyclin-dependent kinase activity assay (continuous ATP coupling assay), CDK4/cyclinD3. To be noted: CDK4/cyclinD3 60 nM, ATP 500 μM, Rb copeptide 500 μM, 15 min preincubation, pH 7.5, 1% DMSO. How it is done: as §1, §2, §3

Another assay addresses T4, CDK6/cyclinD3 (Homo sapiens, UniProt Q00534).
T4 construct: purchased Carna Biosciences 04-107
As to the kind of experiment: Cyclin-dependent kinase activity assay (continuous ATP coupling assay), CDK6/cyclinD3. To be noted: CDK6/cyclinD3 25 nM, ATP 500 μM, Rb copeptide 500 μM, 15 min preincubation, pH 7.5, 1% DMSO. As for the experimental part:
as §1, §2, §3

T1 sequence (P06493 whole entry): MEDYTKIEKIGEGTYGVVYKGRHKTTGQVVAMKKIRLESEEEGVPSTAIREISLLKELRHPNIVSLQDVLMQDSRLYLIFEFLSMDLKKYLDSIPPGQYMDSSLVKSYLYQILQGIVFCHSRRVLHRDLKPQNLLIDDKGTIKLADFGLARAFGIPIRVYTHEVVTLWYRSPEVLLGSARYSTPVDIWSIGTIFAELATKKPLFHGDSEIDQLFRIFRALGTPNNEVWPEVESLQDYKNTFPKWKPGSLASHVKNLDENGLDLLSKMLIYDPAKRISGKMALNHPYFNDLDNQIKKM
T1 sequence (P14635 whole entry partner): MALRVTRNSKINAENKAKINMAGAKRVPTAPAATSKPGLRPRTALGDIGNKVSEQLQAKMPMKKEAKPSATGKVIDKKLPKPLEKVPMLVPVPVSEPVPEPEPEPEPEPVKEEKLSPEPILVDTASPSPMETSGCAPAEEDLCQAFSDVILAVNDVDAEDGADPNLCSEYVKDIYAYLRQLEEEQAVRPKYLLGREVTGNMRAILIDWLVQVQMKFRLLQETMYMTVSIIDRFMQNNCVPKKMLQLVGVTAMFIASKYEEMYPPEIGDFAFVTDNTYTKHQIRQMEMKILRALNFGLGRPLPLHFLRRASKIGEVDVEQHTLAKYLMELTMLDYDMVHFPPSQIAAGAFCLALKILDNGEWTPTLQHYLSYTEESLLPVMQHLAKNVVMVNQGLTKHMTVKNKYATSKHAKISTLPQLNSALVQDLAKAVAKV
T4 sequence (Q00534 whole entry): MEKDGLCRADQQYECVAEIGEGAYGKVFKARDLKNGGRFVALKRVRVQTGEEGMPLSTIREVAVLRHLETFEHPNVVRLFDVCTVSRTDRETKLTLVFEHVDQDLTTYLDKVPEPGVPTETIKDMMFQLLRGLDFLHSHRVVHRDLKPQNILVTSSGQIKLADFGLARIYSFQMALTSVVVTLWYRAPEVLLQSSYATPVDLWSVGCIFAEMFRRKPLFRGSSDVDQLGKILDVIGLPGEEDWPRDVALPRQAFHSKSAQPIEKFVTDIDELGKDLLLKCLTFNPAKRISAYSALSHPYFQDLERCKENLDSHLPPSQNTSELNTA
T4 sequence (P30281 whole entry partner): as the sequence (P30281 whole entry partner) above

Regarding `CNS(=O)(=O)c1ccc(Nc2ncc(C(F)(F)F)c(-n3cc(C4CN(S(C)(=O)=O)C4)cn3)n2)cc1` [Example 98], the half-maximal inhibitory concentration (IC50) on CDK1/cyclinB1 is at least 100 nM; against CDK2/cyclinE1, 10 to 100 nM; against CDK4/cyclinD3, at least 100 nM; against CDK6/cyclinD3 it was at least 100 nM.

On to `CNS(=O)(=O)c1ccc(Nc2ncc(C(F)(F)F)c(-n3cc(C4=CCCC4)cn3)n2)cc1` [Example 12, 4-((4-(4-(cyclopent-1-en-1-yl)-1H-pyrazol-1-yl)-5-(trifluoromethyl)pyrimidin-2-yl)amino)-N-methylbenzenesulfonamide], for which the IC50 against CDK1/cyclinB1 was at least 100 nM; at CDK2/cyclinE1, 10 to 100 nM; at CDK4/cyclinD3, 10 to 100 nM; against CDK6/cyclinD3 it was at least 100 nM.

On to `CNS(=O)(=O)c1ccc(Nc2ncc(C(F)(F)F)c(-n3cc(C4CN(C(C)=O)C4)cn3)n2)cc1` [Example 99], for which the IC50 was at least 100 nM at CDK1/cyclinB1, 10 to 100 nM against CDK2/cyclinE1, at least 100 nM on CDK4/cyclinD3 and at least 100 nM at CDK6/cyclinD3.

For the compound `CCS(=O)(=O)N1CC2(CC(Nc3ncc(C(F)(F)F)c(-n4cccn4)n3)C2)C1` [Example 32, 2-(ethyldioxo-λ6-sulfanyl)-6-{[4-(pyrazol-1-yl)-5-(trifluoromethyl)pyrimidin-2-yl]amino}-2-azaspiro[3.3]heptane], the IC50 against CDK1/cyclinB1, against CDK2/cyclinE1, against CDK4/cyclinD3 and at CDK6/cyclinD3 was at least 100 nM in each case.

Consider `CC(C)(O)Cc1cnn(-c2nc(N[C@@H]3CCOC[C@H]3O)ncc2C(F)(F)F)c1` (single isomer, unassigned) [Example 8], for which the IC50 on CDK1/cyclinB1 is at least 100 nM; against CDK2/cyclinE1 it was at least 100 nM; against CDK4/cyclinD3 it was 10 to 100 nM; on CDK6/cyclinD3 it was 10 to 100 nM.

With `CNS(=O)(=O)c1ccc(Nc2ncc(C(F)(F)F)c(-n3ncc(CC(C)(C)O)c3C)n2)cc1` [Example 69], the IC50 against CDK1/cyclinB1 was at least 100 nM; against CDK2/cyclinE1, 10 to 100 nM; at CDK4/cyclinD3, at least 100 nM; at CDK6/cyclinD3, at least 100 nM.

For `CNS(=O)(=O)c1ccc(Nc2ncc(C(F)(F)F)c(-n3cc([C@@H]4CCC[C@H]4O)cn3)n2)cc1` (single isomer, unassigned) [Example 74], the IC50 is at least 100 nM against CDK1/cyclinB1, 10 to 100 nM against CDK2/cyclinE1, 10 to 100 nM at CDK4/cyclinD3 and at least 100 nM on CDK6/cyclinD3.

Regarding `CNS(=O)(=O)c1ccc(Nc2ncc(C(F)F)c(-n3cccn3)n2)cc1` [Example 20], the IC50 at CDK1/cyclinB1 is at least 100 nM; against CDK2/cyclinE1, 10 to 100 nM; against CDK4/cyclinD3 it was at least 100 nM; at CDK6/cyclinD3, at least 100 nM.

For the compound `CNS(=O)(=O)c1ccc(Nc2ncc(C(F)(F)F)c(-n3cc(CCC(C)(C)O)cn3)n2)cc1` [Example 3], the IC50 is 10 to 100 nM at CDK1/cyclinB1, 10 to 100 nM against CDK2/cyclinE1, 10 to 100 nM against CDK4/cyclinD3 and at least 100 nM against CDK6/cyclinD3.

With `CNS(=O)(=O)c1ccc(Nc2ncc(C(F)(F)F)c(-n3cc(C(C)(C)CO)cn3)n2)cc1` [Example 59], the IC50 on CDK1/cyclinB1 is 10 to 100 nM; on CDK2/cyclinE1 it was at most 10 nM; against CDK4/cyclinD3, 10 to 100 nM; on CDK6/cyclinD3, 10 to 100 nM.

As for `CNS(=O)(=O)c1ccc(Nc2ncc(C(F)(F)F)c(-n3cc(C4CCN(C)CC4)cn3)n2)cc1` [Example 80, N-methyl-4-[[4-[4-(1-methyl-4-piperidyl)pyrazol-1-yl]-5-(trifluoromethyl)pyrimidin-2-yl]amino]benzene sulfonamide], the IC50 against CDK1/cyclinB1 is 10 to 100 nM; at CDK2/cyclinE1 it was at most 10 nM; at CDK4/cyclinD3 it was 10 to 100 nM; against CDK6/cyclinD3, 10 to 100 nM.

Consider `CNS(=O)(=O)c1ccc(Nc2ncc(C(F)(F)F)c(-n3cc([C@@H]4CCNC4)cn3)n2)cc1` [Example 94, (S)—N-methyl-4-((4-(4-(pyrrolidin-3-yl)-1H-pyrazol-1-yl)-5-(trifluoromethyl)pyrimidin-2-yl)amino)benzenesulfonamide], for which the half-inhibitory concentration (IC50) is 10 to 100 nM against CDK1/cyclinB1, at most 10 nM on CDK2/cyclinE1, 10 to 100 nM against CDK4/cyclinD3 and at least 100 nM at CDK6/cyclinD3.

For `COCCNS(=O)(=O)c1ccc(Nc2ncc(C(F)(F)F)c(-n3cccn3)n2)cc1` [Example 127], the IC50 at CDK1/cyclinB1 was at least 100 nM; at CDK2/cyclinE1, 10 to 100 nM; against CDK4/cyclinD3, at least 100 nM; on CDK6/cyclinD3, at least 100 nM.

Consider `CNS(=O)(=O)c1ccc(Nc2ncc(C(F)(F)F)c(-n3cc(C4CC4(F)F)cn3)n2)cc1` (single isomer, unassigned) [Example 53, 4-[[4-[4-(2,2-difluorocyclopropyl)pyrazol-1-yl]-5-(trifluoromethyl)pyrimidin-2-yl]amino]-N-methyl-benzenesulfonamide], for which the IC50 on CDK1/cyclinB1 was at least 100 nM; against CDK2/cyclinE1, 10 to 100 nM; against CDK4/cyclinD3 it was at least 100 nM; at CDK6/cyclinD3, at least 100 nM.

Take `CNS(=O)(=O)c1ccc(Nc2ncc(C(F)(F)F)c(-n3cc(C4CCN(S(C)(=O)=O)CC4)cn3)n2)cc1` [Example 81]: the 50% inhibitory concentration (IC50) against CDK1/cyclinB1, against CDK2/cyclinE1, against CDK4/cyclinD3 and against CDK6/cyclinD3 was 10 to 100 nM each time.

Consider `CNS(=O)(=O)c1ccc(Nc2ncc(Br)c(-n3cccn3)n2)cc1` [Example 25], for which the IC50 was at least 100 nM at CDK1/cyclinB1, at most 10 nM against CDK2/cyclinE1, at least 100 nM on CDK4/cyclinD3 and at least 100 nM at CDK6/cyclinD3.

For the compound `CC(CO)NS(=O)(=O)c1ccc(Nc2ncc(C(F)(F)F)c(-n3cccn3)n2)cc1` (stereo not drawn) [Example 133], the IC50 against CDK1/cyclinB1 is 10 to 100 nM; at CDK2/cyclinE1, at most 10 nM; against CDK4/cyclinD3 it was at least 100 nM; against CDK6/cyclinD3 it was at least 100 nM.

For `CNS(=O)(=O)c1ccc(Nc2ncc(C(F)(F)F)c(-n3cc(C4CCOC4)cn3)n2)cc1` (single isomer, unassigned) [Example 90], the IC50 against CDK1/cyclinB1 is at least 100 nM; at CDK2/cyclinE1, 10 to 100 nM; against CDK4/cyclinD3, 10 to 100 nM; on CDK6/cyclinD3, 10 to 100 nM.

For the compound `[2H]C([2H])([2H])NS(=O)(=O)c1ccc(Nc2ncc(C(F)(F)F)c(-n3cc(CC(C)(C)O)cn3)n2)cc1` [Example 58], the IC50 against CDK1/cyclinB1 was 10 to 100 nM; at CDK2/cyclinE1, at most 10 nM; against CDK4/cyclinD3, 10 to 100 nM; at CDK6/cyclinD3, 10 to 100 nM.

For `CNS(=O)(=O)c1ccc(Nc2ncc(C(F)(F)F)c(-n3cc(C4COC4)cn3)n2)cc1` [Example 102], the IC50 against CDK1/cyclinB1 was at least 100 nM; at CDK2/cyclinE1, at most 10 nM; against CDK4/cyclinD3, 10 to 100 nM; against CDK6/cyclinD3, 10 to 100 nM.

As for `O=S(=O)(NCC1(O)CC1)c1ccc(Nc2ncc(C(F)(F)F)c(-n3cccn3)n2)cc1` [Example 131], the IC50 against CDK1/cyclinB1 was at least 100 nM; at CDK2/cyclinE1 it was at most 10 nM; against CDK4/cyclinD3 it was at least 100 nM; against CDK6/cyclinD3, at least 100 nM.

Consider `Cc1cc(S(=O)(=O)NCCO)ccc1Nc1ncc(C(F)(F)F)c(-n2cccn2)n1` [Example 126], for which the IC50 was at least 100 nM on CDK1/cyclinB1, at most 10 nM on CDK2/cyclinE1, at least 100 nM against CDK4/cyclinD3 and at least 100 nM on CDK6/cyclinD3.

On to `O=S(=O)(NCCCO)c1ccc(Nc2ncc(C(F)(F)F)c(-n3cccn3)n2)cc1` [Example 112], for which the IC50 is at least 100 nM at CDK1/cyclinB1, at most 10 nM against CDK2/cyclinE1, at least 100 nM on CDK4/cyclinD3 and at least 100 nM at CDK6/cyclinD3.

For `CNS(=O)(=O)c1ccc(Nc2ncc(C(F)(F)F)c(-n3cc([C@H]4CCC[C@H]4O)cn3)n2)cc1` (single isomer, unassigned) [Example 77], the IC50 is 10 to 100 nM on CDK1/cyclinB1, 10 to 100 nM on CDK2/cyclinE1, 10 to 100 nM against CDK4/cyclinD3 and at least 100 nM on CDK6/cyclinD3.

With `O=S(=O)(NCCO)c1ccc(Nc2ncc(C(F)(F)F)c(-n3cccn3)n2)c(F)c1` [Example 124], the IC50 against CDK1/cyclinB1 was at least 100 nM; against CDK2/cyclinE1, at most 10 nM; at CDK4/cyclinD3, at least 100 nM; against CDK6/cyclinD3 it was at least 100 nM.

As to `CNS(=O)(=O)c1ccc(Nc2ncc(C(F)(F)F)c(-n3cc(N4CCNCC4)cn3)n2)cc1` [Example 85], the IC50 against CDK1/cyclinB1 is 10 to 100 nM; against CDK2/cyclinE1, at most 10 nM; at CDK4/cyclinD3, 10 to 100 nM; at CDK6/cyclinD3 it was at least 100 nM.

With `CNS(=O)(=O)c1ccc(Nc2ncc(C(F)(F)F)c(-n3cc(C4CCCN4)cn3)n2)cc1` (single isomer, unassigned) [Example 92], the IC50 against CDK1/cyclinB1 is 10 to 100 nM; against CDK2/cyclinE1, at most 10 nM; on CDK4/cyclinD3, at most 10 nM; at CDK6/cyclinD3, 10 to 100 nM.
